Measured values as given in BindingDB's records for doi:10.7270/Q2X065P9 (Methylgene, 2012).
“And” between values parts separate entries of the source, which are not always exact repeats. Equal values may be shown once.

Experiments:
[1] = molecular target: Hepatocyte growth factor receptor (Homo sapiens, UniProt P08581); assay: Inhibition Assay
From the text: (§1) Inhibition assay using kinase inhibitors.

[2] = molecular target: High affinity nerve growth factor receptor (Homo sapiens, UniProt P04629); assay: Inhibition Assay
From the text: as §1

Chain of High affinity nerve growth factor receptor (P04629 whole entry): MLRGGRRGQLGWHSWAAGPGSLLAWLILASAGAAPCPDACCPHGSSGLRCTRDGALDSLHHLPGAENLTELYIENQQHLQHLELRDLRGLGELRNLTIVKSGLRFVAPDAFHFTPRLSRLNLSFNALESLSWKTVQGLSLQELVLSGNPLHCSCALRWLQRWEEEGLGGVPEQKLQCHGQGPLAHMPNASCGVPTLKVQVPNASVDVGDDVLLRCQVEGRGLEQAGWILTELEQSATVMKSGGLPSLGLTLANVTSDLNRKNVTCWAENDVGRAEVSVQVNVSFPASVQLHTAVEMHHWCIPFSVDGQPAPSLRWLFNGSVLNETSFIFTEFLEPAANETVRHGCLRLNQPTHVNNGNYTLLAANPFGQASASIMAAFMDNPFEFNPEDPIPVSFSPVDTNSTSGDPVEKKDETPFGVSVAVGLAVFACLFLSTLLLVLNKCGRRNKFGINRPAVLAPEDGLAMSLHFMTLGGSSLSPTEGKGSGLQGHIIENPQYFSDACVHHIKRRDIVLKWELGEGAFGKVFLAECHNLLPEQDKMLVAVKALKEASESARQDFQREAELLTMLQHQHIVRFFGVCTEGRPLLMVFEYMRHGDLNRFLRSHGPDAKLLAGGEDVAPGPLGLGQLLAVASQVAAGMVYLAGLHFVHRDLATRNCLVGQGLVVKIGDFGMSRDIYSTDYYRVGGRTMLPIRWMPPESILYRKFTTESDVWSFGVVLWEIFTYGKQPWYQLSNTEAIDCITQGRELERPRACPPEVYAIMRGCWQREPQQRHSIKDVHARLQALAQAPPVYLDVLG
Chain of Hepatocyte growth factor receptor (P08581 whole entry): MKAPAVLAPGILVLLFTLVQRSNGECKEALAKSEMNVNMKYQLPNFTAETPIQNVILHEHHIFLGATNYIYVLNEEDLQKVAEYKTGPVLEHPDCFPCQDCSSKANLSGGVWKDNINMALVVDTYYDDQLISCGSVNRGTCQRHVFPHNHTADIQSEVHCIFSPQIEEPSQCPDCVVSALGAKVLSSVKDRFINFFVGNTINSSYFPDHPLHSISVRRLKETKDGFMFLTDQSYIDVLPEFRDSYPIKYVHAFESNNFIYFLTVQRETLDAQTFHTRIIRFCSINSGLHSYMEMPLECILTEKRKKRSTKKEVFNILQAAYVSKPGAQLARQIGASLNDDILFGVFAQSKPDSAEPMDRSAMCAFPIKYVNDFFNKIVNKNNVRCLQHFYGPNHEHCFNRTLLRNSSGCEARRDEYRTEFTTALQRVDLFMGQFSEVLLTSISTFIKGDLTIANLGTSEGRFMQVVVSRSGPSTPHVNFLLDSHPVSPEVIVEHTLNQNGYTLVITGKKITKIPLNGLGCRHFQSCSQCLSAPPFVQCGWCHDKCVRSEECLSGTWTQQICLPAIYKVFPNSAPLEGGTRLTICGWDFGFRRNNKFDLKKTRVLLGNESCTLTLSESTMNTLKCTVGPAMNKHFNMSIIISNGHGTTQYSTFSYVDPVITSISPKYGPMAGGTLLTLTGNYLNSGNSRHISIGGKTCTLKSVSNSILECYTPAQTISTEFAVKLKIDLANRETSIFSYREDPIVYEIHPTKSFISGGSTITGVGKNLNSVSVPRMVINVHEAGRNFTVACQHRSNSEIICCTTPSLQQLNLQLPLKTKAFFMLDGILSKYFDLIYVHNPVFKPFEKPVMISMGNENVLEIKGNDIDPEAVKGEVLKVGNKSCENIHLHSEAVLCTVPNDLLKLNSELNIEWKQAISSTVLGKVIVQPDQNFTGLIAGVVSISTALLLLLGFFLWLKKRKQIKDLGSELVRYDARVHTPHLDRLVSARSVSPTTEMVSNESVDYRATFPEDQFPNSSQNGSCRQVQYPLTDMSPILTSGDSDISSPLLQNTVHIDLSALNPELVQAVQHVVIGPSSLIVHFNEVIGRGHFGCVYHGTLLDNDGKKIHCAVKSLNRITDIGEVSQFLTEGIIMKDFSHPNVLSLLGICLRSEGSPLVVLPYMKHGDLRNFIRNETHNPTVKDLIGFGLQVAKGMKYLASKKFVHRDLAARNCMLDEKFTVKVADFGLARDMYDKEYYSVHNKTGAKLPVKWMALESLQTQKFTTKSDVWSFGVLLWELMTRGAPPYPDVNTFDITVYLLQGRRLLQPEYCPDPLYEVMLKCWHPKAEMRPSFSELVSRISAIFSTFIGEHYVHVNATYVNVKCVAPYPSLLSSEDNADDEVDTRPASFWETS

SMILES | IC50 [1] | IC50 [2] [nM]
CCn1cnc(-c2cc3nccc(Oc4ccc(NC(=O)N5CCN(c6ccccc6)C5=O)cc4F)c3s2)c1 | 10 nM | –
COc1cc2nccc(Oc3ccc(NC(=O)N4CCN(c5ccccc5)C4=O)cc3F)c2cc1OC | 10 nM | –
O=C(Nc1cc(Oc2ccc(NC(=O)N3CCN(c4ccccc4)C3=O)cc2F)ncn1)N1CCCC1 [Oxo-3-phenylimidazolidine-1-carboxamide, 3] | 150 nM | –
O=C(Nc1cc(Oc2ccc(NC(=O)N3CCN(c4ccccc4)C3=O)cc2F)ccn1)N1CCCC1 [Oxo-3-phenylimidazolidine-1-carboxamide, 4] | 230 nM | –

Results, then the compound that gave them:

IC50 [1] | IC50 [2] [nM] | SMILES
– | 4 | CC(=O)Nc1cc(Oc2ccc(NC(=O)N3CCN(c4ccccc4)C3=O)cc2)ccn1 [2-oxoimidazolidine-1-carboxamide, 5]
– | 20 | Nc1cc(Oc2ccc(NC(=O)N3CCN(c4ccccc4)C3=O)cc2)ccn1 [2-oxoimidazolidine-1-carboxamide, 13]
– | 3 | CC(=O)Nc1cc(Oc2ccc(NC(=O)N3CCN(c4ccc(F)cc4)C3=O)cc2)ccn1 [2-oxoimidazolidine-1-carboxamide, 14]
– | 5 | CNC(=O)Nc1cc(Oc2ccc(NC(=O)N3CCN(c4ccccc4)C3=O)cc2)ccn1 [2-oxoimidazolidine-1-carboxamide, 15]
– | 2 | CNC(=O)Nc1cc(Oc2ccc(NC(=O)N3CCN(c4ccc(F)cc4)C3=O)cc2)ccn1 [2-oxoimidazolidine-1-carboxamide, 16]
– | 4 | O=C(NCCN1CCCC1)Nc1cc(Oc2ccc(NC(=O)N3CCN(c4ccc(F)cc4)C3=O)cc2)ccn1 [2-oxoimidazolidine-1-carboxamide, 17]
310 nM and 2500 nM | – | CC(=O)Nc1cc(Oc2ccc(NC(=O)N3CCN(c4ccccc4)C3=O)cc2F)ccn1 [Oxo-3-phenylimidazolidine-1-carboxamide, 5]
